Earlier results, collected in patent publication US12570633B2, “Preparation method for CDK4/6 inhibitor” (CHIA TAI TIANQING PHARMACEUTICAL GROUP CO., LTD., priority 2020, dated 2026).

Columns and labels:
breast cancer = conditions: background statement referring to WO2016141881
CDK4/6 = conditions: background statement referring to WO2016141881; read-out: IC50 value against CDK4/6

**Q.** Which results are given for `CC(C)c1c2cc(-c3nc(Nc4ccc(N5CCNCC5)cn4)ncc3F)ccc2nn1C` [compound of formula (I)]?
**A.** tumor inhibitory activity against breast cancer (breast cancer): good tumor inhibitory activity; IC50 (CDK4/6): < 1 nM
